# Data: patent publication US7781594B2, “5-(4-methanesulfonyl-phenyl)-thiazole derivatives for the treatment of acute and chronic inflammatory diseases” (Faes Farma, S.A., priority 2008, dated 2010)
# How the values were obtained:
# CD62L in lymphocytes = assay: Shedding of CD62L in lymphocytes of PBMC, flow cytometry; format: cell-based, human; conditions: healthy volunteers; 10^−6 M; p<0.05; FIG. 12a
# Description: (§1) Direct immuno-fluorescence techniques of one colour with monoclonal antibodies phycoerythrin-labeled (PE) was used. PE is a fluorescent substance excitable with a 488 nm laser, which emits at 570 nm, and it is detectable and easily distinguishable by a flow cytometer. By using the antibody described in Table 1, a direct labelling was performed:
# (§2) PBMC labelling: the process consisted in a labelling using 96 well V bottom plates. In each well, 5×10^4 cells are located, and afterwards centrifugated at 400×g during 5 minutes. After washing-out, cells are re-suspended and 5 μl of the corresponding monoclonal antibody are added. Cells are again re-suspended and the plate is incubated in darkness, during 20 minutes, at 4° C. Subsequently, 150 μl PBS are added and two wash-outs are performed. Finally, it is re-suspended in 150 μl PBS and collected in a cytometer tube, adding PBS up to a final volume of 0.3 ml.
# (§3) For the counting, a FACSCalibur flow cytometer equipped with argon laser tuned at 488 nm was used in order to induce phycoerythrin fluorescence. The equipment, apart from the fluorescence channels, also provided information about the size (FSC) and cellular complexity (SSC).
# (§4) As negative controls, the study cells with no labelling and other irrelevant labelled with monoclonal antibodies of equal isotypes than the ones used in the study (IgG1-FITC, PE y TC, IgG2a FITC, PE, TC), were used. […]
# CD62L in monocytes = assay: Shedding of CD62L in monocytes of PBMC, flow cytometry; format: cell-based, human; conditions: healthy volunteers; FIG. 12b
# Description: as §1, §2, §3, §4
compound,measurement,setting,value
"Cc1nc(OC2CCCC2)c(-c2ccc(S(C)(=O)=O)cc2)s1 [Compound 12, 4-cyclopentyloxy-5-(4-methylsulfonyl-phenyl)-2-methyl-thiazole]",Effect on CD62L shedding in lymphocytes,CD62L in lymphocytes,increases significantly
same,Effect on CD62L shedding in monocytes,CD62L in monocytes,significant differences were not observed
